Assay results reported in the supplement of paper PMC10307832.

Legend:
Experiment in all cases: relative viability (nuclei count vs DMSO), 5 days (fraction); higher = more cells survive
Bortezomib + Phenformin = compound: CC(C)C[C@H](NC(=O)[C@H](Cc1ccccc1)NC(=O)c1cnccn1)B(O)O [Bortezomib] + N=C(N)NC(=N)NCCc1ccccc1 [Phenformin] (partner 250 µM)
How it was run: (§1)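 Each reported value is a median over duplicate plates. It expresses relative viability: treated-well nuclei count divided by vehicle-well nuclei count. Lung cancer cell lines in 1536-well plates were dosed by pin tool a day after seeding, alone with one drug or with a fixed anchor-drug dose plus five library-drug doses (not always all listed) in √10 steps, and nuclei were counted after 5 days.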

[1] = compound: CC1=CC(=NN1)NC2=CC(=NC(=N2)/C=C/C3=CC=CC=C3)N4CCN(CC4)C + Cc1nc(Nc2ncc(C(=O)Nc3c(C)cccc3Cl)s2)cc(N2CCN(CCO)CC2)n1 [Dasatinib] (partner 0.075 µM)
How it was run: as §1

Obatoclax + Foretinib = compound: COC1=CC(c2cc3ccccc3[nH]2)=N/C1=C\c1[nH]c(C)cc1C [Obatoclax] + COc1cc2c(Oc3ccc(NC(=O)C4(C(=O)Nc5ccc(F)cc5)CC4)cc3F)ccnc2cc1OCCCN1CCOCC1 [Foretinib] (partner 0.25 µM)
How it was run: as §1

Obatoclax + Decitabine = compound: COC1=CC(c2cc3ccccc3[nH]2)=N/C1=C\c1[nH]c(C)cc1C [Obatoclax] + Nc1ncn([C@H]2C[C@H](O)[C@@H](CO)O2)c(=O)n1 [Decitabine] (partner 2 µM)
How it was run: as §1

Cell Line	relative viability (Bortezomib + Phenformin; first compound 0.0002 µM)	relative viability (Bortezomib + Phenformin; first compound 0.000632 µM)	relative viability (Bortezomib + Phenformin; first compound 0.002 µM)	relative viability (Bortezomib + Phenformin; first compound 0.006325 µM)	relative viability (Bortezomib + Phenformin; first compound 0.02 µM)	relative viability ([1]; first compound 0.08 µM)	relative viability ([1]; first compound 0.253 µM)	relative viability ([1]; first compound 0.8 µM)	relative viability ([1]; first compound 2.53 µM)	relative viability ([1]; first compound 8 µM)	relative viability (Obatoclax + Foretinib; first compound 0.01 µM)	relative viability (Obatoclax + Foretinib; first compound 0.03162 µM)	relative viability (Obatoclax + Foretinib; first compound 0.1 µM)	relative viability (Obatoclax + Foretinib; first compound 1 µM)	relative viability (Obatoclax + Decitabine; first compound 0.01 µM)	relative viability (Obatoclax + Decitabine; first compound 0.03162 µM)	relative viability (Obatoclax + Decitabine; first compound 0.1 µM)	relative viability (Obatoclax + Decitabine; first compound 0.3162 µM)	relative viability (Obatoclax + Decitabine; first compound 1 µM)	relative viability (Obatoclax + Foretinib; first compound 0.3162 µM)
NCI-H2347	0.493	0.512	0.594	0.298	0.257	0.297	0.305	0.336	0.293	0.24	1.09	0.831	0.918	1.04	0.607	0.561	0.579	0.563	0.653	–
A-427	0.253	0.246	0.339	0.212	0.11	0.789	0.579	0.631	0.156	0.0981	1.16	0.989	1.01	0.984	0.528	0.525	0.491	0.614	0.504	0.972
HCC-366	0.621	0.542	0.629	0.578	0.0354	0.708	0.645	0.544	0.0369	0.0193	0.932	0.922	0.916	0.919	0.318	0.271	0.306	0.347	0.274	0.549
HCC-78	0.699	0.641	0.676	0.712	0.364	0.444	0.436	0.469	0.234	0.221	0.532	0.53	0.608	0.59	0.617	0.511	0.706	0.616	0.699	0.553
PC-14	0.434	0.487	0.616	0.183	0.061	0.273	0.211	0.22	0.0234	0.0115	0.858	0.945	0.917	0.661	0.209	0.17	0.147	0.0898	0.0842	0.872
NCI-H2087	0.451	0.441	0.312	0.0487	0.0431	0.934	0.601	0.627	0.182	0.0767	1.21	1.05	1.1	0.465	0.215	0.254	0.34	0.135	0.142	0.324
HOP-62	0.661	0.625	0.54	0.151	0.0609	0.605	0.72	0.772	0.355	0.197	1.16	0.933	1.11	1.06	0.257	0.177	0.206	0.277	0.214	1.04
EKVX	0.238	0.237	0.238	0.239	0.139	0.55	0.579	0.603	0.499	0.151	0.911	0.76	0.427	1.09	0.343	–	0.313	0.368	0.324	0.752
